According to patent publication US20250171428A1, “CRYSTALLINE FORMS OF 6-((5-METHYL-3-(6-METHYLPYRIDIN-3-YL)ISOXAZOL-4- YL)METHOXY)- N -(TETRAHYDRAPYRAN-4-YL)PYRIDAZINE-3-CARBOXAMIDE” (Hoffmann-La Roche Inc., priority 2022, published 2025):

Legend:
Assay type in all cases: physicochemical
[1] = Slurry of Form 4 in various solvents and solvent/water mixtures; conditions: 20° C. to 60° C.
[2] = Transformation of Form 4 at elevated temperature; conditions: temperatures >110° C.
[3] = Competing long-term slurry equilibration experiments including Form A and Form B; conditions: competing slurries of Form A and Form B, various solvents, 5° C. to 65° C.; all conditions tested
Procedure: The competing long-term slurry equilibration experiments including Form A and Form B were performed in various solvents in the temperature range from 5° C. to 65° C.

Cc1ccc(-c2noc(C)c2COc2ccc(C(=O)NC3CCOCC3)nn2)cn1 [Form 4, 6-((5-methyl-3-(6-methylpyridin-3-yl)isoxazol-4-yl)methoxy)-N-(tetrahydropyran-4-yl)pyridazine-3-carboxamide]
solid form transformation in slurry [1]: transform to Form B | solid form transformation on heating [2]: transform to Form A

Cc1ccc(-c2noc(C)c2COc2ccc(C(=O)NC3CCOCC3)nn2)cn1 [Form B, 6-((5-methyl-3-(6-methylpyridin-3-yl)isoxazol-4-yl)methoxy)-N-(tetrahydropyran-4-yl)pyridazine-3-carboxamide]
stability of the crystalline form [3]: superior stability
